Source: patent publication US6448442B1, “Contrast media” (Amersham Health AS, priority 1999, dated 2002)
Read-outs that look alike come from different tables or passages of the source. Values belong to the compound of their own block, whether it stands above or below them.

Experiments:
[1] = Viscosity in aqueous solution at 20° C. (Example 82, Tables 1 and 2); format: physicochemical; conditions: for Viscosity 350 mgI/ml (CALCULATED): calculated for 350 mgI/ml; for Viscosity at 400 mgI/ml (CALCULATED): calculated for 400 mgI/ml
Description: The viscosities in aqueous solution at 20° C. for some further compounds described above were determined and are listed in Table 2. […]

[2] = Viscosity at 37° C. (Table 3); format: physicochemical; conditions: for Viscosity at 350 mgI/ml (CALCULATED): calculated for 350 mgI/ml
[3] = Determination of viscosity (Example 121, flow time in syringe against reference sample); format: physicochemical; conditions: 350 mgI/ml, 20° C.
Description: The apparatus consisted of a thermostated 10 μl graduated sample syringe connected to a conical shaped 100 μl sample vial. The syringe needle as well as a probe for temperature measurements (±0.2° C.) was inserted through an airtight septum at the top of the vial. Through the septum was also inserted a small tubing connected to an air syringe via a PTFE tubing.
To determine viscosity, 15≧75 μl of the sample liquid was placed at the bottom of the sample vial. The liquid was forced up into the sample syringe by a slight over pressure generated manually by the air syringe. When the syringe was almost filled, the over pressure was released so the liquid, forced only by gravity, could flow freely out from the syringe back into the vial. The time for the liquid surface to pass between the marks of e.g. 5 and 10 μl in the syringe was measured […]
The viscosity is calculated as follows: […]
ηS=Viscosity of the sample
ηR=Viscosity of a reference sample with known viscosity and with similar composition as the sample e.g. Iohexol or Iodixanol dS=Density of sample solution dR=Density of reference solution tS=Average time for sample surface to pass between two marks in the syringe tR=Corresponding time for reference sample
The results of these determinations of viscosity for various of the present Examples and two commercially available X-ray contrast media are shown in Table 1′ below. In all cases, the values refer to concentrations of 350 mgI/ml at a temperature of 20° C.

[4] = 350 mgI/ml, 20° C., data from literature; cited from earlier work
[5] = Solubility (remark in Table 2); format: physicochemical; conditions: aqueous solution, no viscosity given

Viscosity 350 mgI/ml (CALCULATED) [1]: 12.2 mPas | Viscosity at 400 mgI/ml (CALCULATED) [1]: 21.5 mPas | Viscosity 20° C. ([1]; concentration 376 mgI/ml): 16.2 mPas | Viscosity 37° C. ([2]; 376 mgI/ml): 8.9 mPa·s | Viscosity at 350 mgI/ml (CALCULATED) [2]: 6.1 mPa·s
Compound: O=C(NC(CO)C(O)CO)c1c(I)c(CO)c(I)c(NC(=O)C(O)C(O)CO)c1I (centres unmarked) [Example 81, 5-[N′-(2,3,4-Trihydroxybutanoyl)-amino]-3-hydroxymethyl-N-(1,3,4-trihydroxybut-2-yl)-2,4,6-triiodobenzamide]

Viscosity [3]: 10.1 mPas
Compound: NC(=O)C(O)c1c(I)c(NC(=O)C(O)CO)c(I)c(C(=O)NCC(O)CO)c1I (centres unmarked) [Example 114, 5-(2,3-Dihydroxypropionyl)amino-3-N-(2,3-dihydroxypropyl)carbamido-2,4,6-triiodomandeloamide]

Viscosity [3]: 13.4 mPas
Compound: N,N′-Bis(2,3-dihydroxybutyryl)-3,5-diamino-2,4,6-triiodomandeloamide [Example 101]

Viscosity [3]: 7.5 mPas
Compound: CC1(C)OCC(CNC(=O)c2c(I)c(NC(=O)C3COC(C)(C)O3)c(I)c(C(C#N)O[Si](C)(C)C)c2I)O1 (centres unmarked) [Example 113, 5-(2,2-Dimethyl-1,3-dioxolane-4-carbamido)-3-(O-trimethylsilyl-cyanomethyl)-N-(2,2-dimethyl-1,3-dioxolane-4-methyl)-2,4,6-triiodobenzamide]

Viscosity [3]: 17.0 mPas
Compound: NC(=O)C(O)c1c(I)c(NC(=O)[C@H](O)[C@@H](O)CO)c(I)c(NC(=O)[C@H](O)[C@@H](O)CO)c1I (stereo partly drawn) [Example 104, N,N′-Bis(2R,3S,4-trihydroxybutyryl)-3,5-diamino-2,4,6-triiodomandeloamide]

Compound: CN(C(=O)CO)c1c(I)c(C(=O)NCC(O)CO)c(I)c(C(=O)NCC(O)CO)c1I (centres unmarked) [Iomeprol]
Viscosity [4]: 15.4 mPas

Viscosity 350 mgI/ml (CALCULATED) [1]: 9.4 mPas | Viscosity at 400 mgI/ml (CALCULATED) [1]: 14.8 mPas | Viscosity 20° C. ([1]; concentration 444 mgI/ml): 23 mPas | Viscosity 37° C. ([2]; 444 mgI/ml): 11 mPa·s | Viscosity at 350 mgI/ml (CALCULATED) [2]: 5.2 mPa·s
Compound: O=C(NCC(O)CO)c1c(I)c(CO)c(I)c(NC(=O)C(O)C(O)CO)c1I (centres unmarked) [Example 80, 5-[N′-(2,3,4-Trihydroxybutanoyl)amino]-3-hydroxymethyl-N-(2,3-dihydroxypropyl)-2,4,6-triiodobenzamide]

Viscosity 350 mgI/ml (CALCULATED) [1]: 10.4 mPas | Viscosity at 400 mgI/ml (CALCULATED) [1]: 17.2 mPas | Viscosity 20° C. ([1]; concentration 379 mgI/ml): 14.4 mPas | Viscosity 37° C. ([2]; 379 mgI/ml): 6.9 mPa·s | Viscosity at 350 mgI/ml (CALCULATED) [2]: 5.9 mPa·s
Compound: O=C(Nc1c(I)c(CO)c(I)c(NC(=O)C(O)C(O)CO)c1I)C(O)C(O)CO (centres unmarked) [Example 79, N,N′-Bis-(2,3,4-trihydroxybutanoyl)-3,5-diamino-2,4,6-triiodobenzyl alcohol]

Viscosity [3]: 8.8 mPas
Compound: NC(=O)C(O)c1c(I)c(NC(=O)CO)c(I)c(NC(=O)[C@H](O)[C@H](O)CO)c1I (stereo partly drawn) [Example 106, N-(2R,3R,4-Trihydroxybutyryl)-N′-hydroxyacetyl-3,5-diamino-2,4,6-triiodomandeloamide]

solubility [5]: low solubility
Compound: OCc1cc(OCC(O)CO)c(I)c(OCC(O)CO)c1I (centres unmarked) [Example 78, 3,5-Bis-(2,3-dihydroxypropyloxy)-2,4-diiodobenzyl alcohol]

Viscosity [3]: 7.4 mPas
Compound: Nc1c(I)c(NC(=O)C(O)CO)c(I)c(C(O)C(=O)NC(=O)C(O)CO)c1I (centres unmarked) [Example 99, N,N′-Bis(2,3-Dihydroxypropionyl)-3,5-diamino-2,4,6-triiodomandeloamide]

Viscosity [3]: 6.9 mPas
Compound: Nc1c(I)c(NC(=O)CO)c(I)c(C(O)C(=O)NC(=O)C(O)CO)c1I (centres unmarked) [Example 98, N-(2,3-Dihydroxypropionyl)-N′-hydroxyacetyl-3,5-diamino-2,4,6-triiodomandeloamide]

Viscosity at 400 mgI/ml (CALCULATED) [1]: 9.8 mPas | Viscosity 20° C. ([1]; concentration 514 mgI/ml): 29 mPas
Compound: O=C(NCCO)c1c(I)c(CO)c(I)c(NC(=O)C(O)CO)c1I (centres unmarked) [Example 52, 5-(2,3-Dihydroxypropionylamino)-3-hydroxymethyl-N-(2-hydroxyethyl)-2,4,6-triiodobenzamide]

Viscosity 350 mgI/ml (CALCULATED) [1]: 6.9 mPas | Viscosity at 400 mgI/ml (CALCULATED) [1]: 10.0 mPas | Viscosity 20° C. ([1]; concentration 435 mgI/ml): 13 mPas | Viscosity 20° C. ([1]; concentration 512 mgI/ml): 29 mPas | Viscosity ([1]; iodine concentration 435 mgI/mL): 13 mPas
Compound: O=C(CO)Nc1c(I)c(CO)c(I)c(N(CCO)C(=O)CO)c1I [Example 5, N,N′-Bis(hydroxyacetyl)-N-(2-hydroxyethyl)-3,5-diamino-2,4,6-triiodobenzylalcohol]

Viscosity [3]: 9.7 mPas
Compound: N-(2R,3S,4-Trihydroxybutyryl)-N′-hydroxyacetyl-3,5-diamino-2,4,6-triiodomandeloamide [Example 100]

Viscosity at 400 mgI/ml (CALCULATED) [1]: 11.5 mPas | Viscosity 20° C. ([1]; concentration 361 mgI/ml): 8 mPas | Viscosity ([1]; iodine concentration 361 mgI/mL): 8.0 mPas
Compound: O=C(CO)Nc1c(I)c(CO)c(I)c(N(CC(O)CO)C(=O)CO)c1I (centres unmarked) [Example 7, N,N′-Bis(hydroxyacetyl)-N-(2,3-dihydroxypropyl)-3,5-diamino-2,4,6-triiodobenzylalcohol]
